Key:
Format in all cases: in vivo
[1] = Systolic blood pressure by tail plethysmography in ApoE^−/− mice infused with Ang II; conditions: for systolic pressure: Ang II 1000 ng/kg/min + AMPT 100 mg/kg i.p. twice daily
Description: (§1) The studies were developed in male ApoE^−/− mice who were acclimatised to the facility for 1 week before the study. Animals were infused with Ang II (1000 ng/kg/min) by means of osmotic minipumps (model 1004, Alzet) implemented subcutaneously in the interscapular space of the mice after anesthesia with isoflurane. The procedure lasts approximately 15 minutes per animal. Immediately after surgery, antibiotics (penicillin, 22,000 u/Kg, i.m.) and analgesics (buprenorphine 0.05 mg/Kg, i.m.) were administered for preventing infections and limiting animal discomfort, which were kept on a heating pad until they woke up after the intervention and were carefully monitored during the post-surgery period. A group of the mice infused with Ang II received AMPT treatment (100 mg/kg, via i.p) administered twice daily from the day before implementing the Ang II pump and throughout the study (28 days). The control group consisted of ApoE^−/− mice infused with saline. Blood pressure was assessed weekly (at 0, 7, 14, 21 and 28 days) by means of the tail plethysmography method. The diameter of the aorta was also assessed weekly by means of abdominal ultrasound using ultrasound equipment (Vevo2100 Imaging systems, Visualsonics) with a 30 MHz transducer. To do this, the mice were anesthetised by means of 1.5% isofluorane inhalation and secured in a supine position on a heating platform. After shaving the precordial region, the transducer was applied to the abdominal wall to take measurements of the abdominal aorta. Those abdominal aortas with external diameters greater than or equal to 1.5 mm were considered aneurysmal. All measurements were carried out from the images captured by using the analysis software. After 4 weeks, the animals were euthanised by means of terminal intraperitoneal anesthesia with a mixture of medetomidine (1 mg/kg) and ketamine (75 mg/kg) in saline (final volume of 200 μl), aortas were immediately harvested, they were examined to determine the presence of aneurysms and were immediately frozen in nitrogen or fixed in paraformaldehyde for macroscopic characterisation or to be embedded in paraffin and processed for histochemical studies.

[2] = Systolic blood pressure in TgNR4A3^CML mice infused with Ang II; conditions: for systolic pressure: Ang II + AMPT
Description: as §1
The studies were developed in a similar way to that described in Example 3. In this case, the effect of the infusion of Ang II on the diameter of the aorta in control animals (C57BL/6J; WT) and in transgenic mice for NR4A3 (TgNR4A3^CML) was analysed. The transgenic mice infused with Ang II were divided into two groups, one of which received AMPT treatment from the day before implementation of the Ang II pumps, as described in Example 3, while the second group only received the vehicle in which this drug was administered (saline). The control groups consisted of transgenic mice and non-transgenic controls infused with saline.

[3] = system: ApoE^−/− mice infused with angiotensin II; test: Ang II-induced aortic aneurysm in ApoE^−/− mice (ultrasonography, histology)
Description: FIG. 3. […] (A) Graph which represents the weekly evolution of the aortic diameter of ApoE^−/− mice infused with saline or angiotensin II (Ang II; 1000 ng/kg/min for 28 days) analysed by means of ultrasonography. Animals infused with Ang II were treated or not with AMPT (100 mg/kg via IP, administered twice a day from the day before implementing the Ang II pump). The values correspond to the mean±SEM (saline, n=9; Ang II, n=14; Ang II+AMPT, n=19). P<0.05: * vs. time 0 of the same experimental group; # vs. animals infused with saline at the same time; $ vs. animals infused with Ang II (not treated with AMPT) at the same time. (B) Representative images obtained by means of ultrasonography of the cross-sectional view of the aorta of each of the experimental groups indicated in (A) after 4 weeks of treatment. (C) Representative photographs of the aortas of the mice in the 3 study groups at the end of the study.
(§2) FIG. 4. […] ApoE^−/− mice were infused with saline or angiotensin II (Ang II; 1000 ng/kg/min for 28 days). Animals infused with Ang II were treated or not with AMPT (100 mg/kg, via IP, administered twice a day from the day before implementing the Ang II pump). (A and B) Representative images of the histological analysis using Masson's trichrome (A) and orcein (B) staining in sections of the abdominal aorta of the indicated study groups. Arrows indicate elastic fibre ruptures. (C) Representative staining for MAC3 (macrophage marker) in sections of the abdominal aorta of each one of the experimental groups. Arrows indicate positive regions for MAC3. Bar: 100 microns.
as §1

[4] = system: TgNR4A3^CML mice infused with angiotensin II; test: Ang II-induced aortic aneurysm in TgNR4A3^CML mice (ultrasonography, histology)
Description: (A) Diameter of the aorta of non-transgenic mice (controls; C57BL/6J; WT) and transgenic mice for human NR4A3 (TgNR4A3^CML) infused with saline or angiotensin II (Ang II; 1000 ng/kg/min for 28 days). A group of TgNR4A3^CML mice infused with Ang II was treated with AMPT (100 mg/kg, via IP, administered twice a day from the day before implementing the Ang II pump). The diameter of the aorta was determined by means of ultrasonography. Values are expressed as mean±SEM (at least n=7). P<0.05: * vs. time 0 of the same experimental group; # vs. the same animal infused with saline at the same time; $ vs. TgNR4A3CML infused with Ang II and treated with AMPT. (B) Representative images obtained by means of ultrasonography of the cross-sectional view of the aorta of each of the experimental groups indicated in (A) after 4 weeks of treatment. (C) Representative photographs of the aortas of the mice in the 5 groups at the end of the study.
as §2, with “6.” for “4.”, “Non-transgenic (controls; C57BL/6J; WT) and transgenic” for “ApoE^−/−”, “mice for human NR4A3 (TgNR4A3^CML)” for “mice”, “A group of transgenic animals” for “Animals”
as §1
The studies were developed in a similar way to that described in Example 3. […]

[5] = ApoE^−/− mice, Ang II, AMPT 100 mg/kg i.p. twice daily, 28 days
[6] = TgNR4A3^CML mice, Ang II, AMPT treatment

CC(N)(Cc1ccc(O)cc1)C(=O)O (stereo not drawn) [AMPT, alpha-methyl-p-tyrosine]
systolic pressure ([1]; day 0, mean ± SEM): 100.55 mm Hg | systolic pressure ([1]; day 7, mean ± SEM): 133.99 mm Hg | systolic pressure ([1]; day 14, mean ± SEM): 136.36 mm Hg | systolic pressure ([1]; day 21, mean ± SEM): 143.34 mm Hg | systolic pressure ([1]; day 28, mean ± SEM): 154.46 mm Hg | effect of AMPT treatment on Ang II-increased blood pressure ([1]; Ang II infusion, AMPT 100 mg/kg i.p. twice daily, 28 days): not significantly altered | systolic pressure ([2]; day 0, mean ± SEM): 100.19 mm Hg | systolic pressure ([2]; day 7, mean ± SEM): 111.79 mm Hg | systolic pressure ([2]; day 14, mean ± SEM): 129.03 mm Hg | systolic pressure ([2]; day 21, mean ± SEM): 146.44 mm Hg | systolic pressure ([2]; day 28, mean ± SEM): 158.59 mm Hg | effect of AMPT treatment on Ang II-increased blood pressure ([2]; Ang II infusion, AMPT 100 mg/kg i.p. twice daily): without significant differences | development of aortic aneurysm ([3]; ApoE^−/− mice infused with Ang II 1000 ng/kg/min for 28 days, AMPT 100 mg/kg IP twice a day): inhibits the development of aortic aneurysm | Ang II-induced increase in aortic diameter (ultrasonography) ([3]; ApoE^−/− mice, AMPT 100 mg/kg i.p. twice daily, significant after 14 days, accentuated until 28 days): reduced the increase in aortic diameter to values similar to those of control animals | structural alterations and inflammatory infiltrate in the aorta ([3]; ApoE^−/− mice, Ang II 1000 ng/kg/min for 28 days, AMPT 100 mg/kg IP twice a day): limits structural alterations and inflammatory infiltrate | disruption and rupture of elastic fibers (orcein staining) [3, 5]: limited the disruption and rupture of elastic fibers | macrophage (MAC3-positive cells) infiltrate in the vascular wall [3, 5]: prevented the significant macrophage (MAC3-positive cells) infiltrate | vascular remodelling / collagen deposition (Masson's trichrome) [3, 5]: attenuated | development of aortic aneurysm ([4]; TgNR4A3^CML mice infused with Ang II 1000 ng/kg/min for 28 days, AMPT 100 mg/kg IP twice a day): inhibits the development of aortic aneurysm | Ang II-induced increase in aortic diameter (ultrasonography) ([4]; TgNR4A3^CML mice, AMPT 100 mg/kg i.p. twice daily, after 21 and 28 days, values similar to WT mice infused with Ang II): significantly prevented this effect | structural alterations and inflammatory infiltrate in the aorta ([4]; TgNR4A3^CML mice, Ang II 1000 ng/kg/min for 28 days, AMPT 100 mg/kg IP twice a day): limits structural alterations and inflammatory infiltrate | destructuring and rupture of the elastic laminae (orcein staining) [4, 6]: limited the destructuring and rupture of the elastic laminae | vascular inflammatory infiltrate (MAC3 immunohistochemistry) [4, 6]: reduced the important vascular inflammatory infiltrate | vascular remodelling and collagen deposition (Masson's trichrome) [4, 6]: attenuated the exacerbated vascular remodelling and collagen deposition

— patent publication US20210283083A1, “USE OF TYROSINE HYDROXYLASE INHIBITORS FOR THE TREATMENT OF AORTIC ANEURYSM” (CONSEJO SUPERIOR DE INVESTIGACIONES CIENTÍFICAS (CSIC), priority 2018, published 2021)
